The data set can be described thus: photoluminescence quantum yield (fraction); solvent given as SMILES.

SMILES strings stand for the structures.

In turn, `CC(=O)Nc1ccc(C2=C/C(=C\c3ccc(C#N)cc3)C(=O)O2)cc1` showed a photoluminescence quantum yield (in C1COCCO1) of 0.437.
`CCN(CC)c1ccc2cc(/C(Cl)=C/C=C/C(=C(C#N)C#N)c3ccc(N(c4ccccc4)c4ccccc4)cc3)c(=O)oc2c1`: the photoluminescence quantum yield is 0.015 (in CC(C)=O); 0.028 (in CCOC(C)=O); 0.002 (in CN(C)C=O); 0.003 (in CS(C)=O); 0.098 (in Cc1ccccc1); 0.018 (in ClCCl).
For the setting “in ClCCl”, `N#Cc1ccc(-n2c(-c3ccc(-c4ccc(-c5nc6c7ccccc7c7ccccc7c6n5-c5ccc(C#N)c6ccccc56)c5ccccc45)c4ccccc34)nc3c4ccccc4c4ccccc4c32)c2ccccc12` yielded a photoluminescence quantum yield of 0.9.
On the same count and under the same terms, the figure for `CC(C)(C)c1ccc(-c2cc(-c3ccc(-c4cc(-c5ccc(C(C)(C)C)cc5)c(C#N)s4)s3)sc2C#N)cc1` is 0.17.
Still for that read-out and setting: for `CCOCCOCCOC(=O)/C=C/C1=CC2=C(c3c(C)cc(C)cc3C)c3cccn3[B-](F)(F)[N+]2=C1` the value was 0.35.
Under “in Cc1ccccc1”, `CCCCCCc1ccc(/C=C/c2ccc(CCCCCC)s2)s1` returned a photoluminescence quantum yield of 0.051.
The compound `CCCCC(CC)COc1cc(OCC(CC)CCCC)c2c#cc3ccc4c(c3)c3cc(c#cc5cc(c#cc6ccc7c(c6)c6cc(c#cc1c2)ccc6n7CC(CC)CCCC)c(C(CCCC)OCCC)cc5C(CCCC)OCCC)ccc3n4CC(CC)CCCC` (stereo not drawn) came in with a photoluminescence quantum yield (in ClCCl) of 0.32.
For the compound `CNc1cccc2c1C(=O)c1ccccc1C2=O`, the photoluminescence quantum yield reads like this: (in C1CCC2CCCCC2C1) 0.014; (in C1CCCCC1) 0.0135; (in CC1CCCCC1) 0.0138; (in CC#N) 0.0026; (in CCC(C)CC) 0.0136; (in CCCCCC) 0.0136. The same compound gave a photoluminescence quantum yield (in CCOC(C)=O) of 0.0048.
With `CC1=[N+]2C(=C(c3cccs3)c3ccc(C)n3[B-]2(F)F)C=C1c1cc2n(c1)[B-](F)(F)[N+]1=CC=CC1=C2c1c(C)cc(C)cc1C`, the photoluminescence quantum yield came out at 0.62 (in C1CCCCC1) and 0.12 (in CCOC(C)=O).
Take `CNc1cc2nc3cc(Cl)c(Cl)cc3nc2cc1NC`: the photoluminescence quantum yield (in CCO) came to 0.14.
Under “in ClCCl”, `c1ccc(N(c2ccccc2)c2ccc(-c3ccncn3)cc2)cc1` yielded a photoluminescence quantum yield of 0.55.
The compound `CC(=O)c1ccc(/C=C/C=C/C2=NC3C(=O)NC(N)=NC3N2[C@H]2C[C@H](O)[C@@H](CO)O2)cc1` (stereo partly drawn) displayed a photoluminescence quantum yield (in C1COCCO1) of 0.59, a photoluminescence quantum yield (in CC#N) of 0.57 and a photoluminescence quantum yield (in CO) of 0.015.
`COC(=O)C(Cc1ccc2oc(-c3ccc(-n4c5ccccc5c5ccccc54)cc3)nc2c1)NC(=O)OC(C)(C)C` (stereo not drawn): the photoluminescence quantum yield is 0.94 (in C1CCCCC1); 0.53 (in C1CCOC1); 0.62 (in C1COCCO1); 0.52 (in CC1CCCO1); 0.46 (in CC#N); 0.81 (in CC(C)(C)O). Also, the photoluminescence quantum yield amounted to 0.44 (in CC(C)=O); 0.55 (in CC(C)CC(C)(C)C); 0.59 (in CC(C)O); 0.55 (in CC(O)CO); 0.65 (in CCCCCCCO); 0.73 (in CCCCCCO). In addition, the photoluminescence quantum yield reads like this: (in CCCCCO) 0.77; (in CCCCO) 0.69; (in CCO) 0.63; (in CCOC(C)=O) 0.54; (in CCOCC) 0.56; (in CN(C)C=O) 0.58. Moreover, the photoluminescence quantum yield was found to be 0.36 (in CO), 0.47 (in CS(C)=O), 0.69 (in Cc1ccccc1) and 0.52 (in OCCO).
The compound `N#Cc1ccc(-c2cn3ccc[n+]3[n-]2)cc1` came in with a photoluminescence quantum yield (in ClCCl) of 0.18.
`CC(C)(C)c1cc2c(c(C(C)(C)C)c1)O[B-](F)(F)[n+]1c-2nc(-c2ccccc2)c2ccccc21` showed a photoluminescence quantum yield (in Cc1ccccc1) of 0.002.
On to `CC(C)(C)OC(=O)COc1ccc2c(c1)oc(=O)c1c(=O)oc3ccccc3c12`, for which the photoluminescence quantum yield by setting is: (in CS(C)=O) 0.31; (in ClCCl) 0.008.
Where the note is “in ClCCl”, `S=P1(c2ccccc2)c2cccc3c4c5ccccc5c5ccccc5c4c4ccc1n4c23` (stereo not drawn) yielded a photoluminescence quantum yield of 0.24.
Take `N#Cc1nc(N(Cc2ccccc2)Cc2ccccc2)c(C#N)nc1N(Cc1ccccc1)Cc1ccccc1`: the photoluminescence quantum yield (in ClC(Cl)Cl) turned out to be 0.76.
Regarding `COc1ccccc1-c1nc(-c2ccccc2)c2ccccn12`, the photoluminescence quantum yield reads like this: (in CC#N) 0.38; (in ClCCl) 0.385.
For the compound `COc1ccc(C2=[N+]3C(=Nc4c(-c5ccccc5)cc(-c5ccc(OC)cc5)n4[B-]3(F)F)C(c3ccccc3)=C2)cc1`, the photoluminescence quantum yield is 0.36 (in ClC(Cl)Cl) and 0.36 (in ClCCl).
For `CCOC(=O)c1c2c3c(ccc(F)c3c3cc4c(cc13)[Si](C)(C)O[Si]4(C)C)N(C)C2=O`, under “in CC#N”, the photoluminescence quantum yield is 0.47.
Take `Cc1cc(C)c(B(c2cc3ccc4cccc5ccc(c2)c3c45)c2c(C)cc(C)cc2C)c(C)c1`: the photoluminescence quantum yield (in Cc1ccccc1) was 0.68.
The compound `CC(C)(C)NC1=CC2=c3cc(NC(C)(C)C)c4nc(C(F)(F)C(F)(F)C(F)(F)F)nc5c(NC(C)(C)C)cc(c3c54)C3=CC(NC(C)(C)C)=C4N=C(C(F)(F)C(F)(F)C(F)(F)F)N=C1C4C32` (stereo not drawn) registered a photoluminescence quantum yield (in C1CCOC1) of 0.25.
`F[Si-](F)(c1c2ccccc2cc2ccccc12)(c1c2ccccc2cc2ccccc12)c1c2ccccc2cc2ccccc12` registered a photoluminescence quantum yield (in C1CCOC1) of 0.64.
The same measure, in the same setting: for `C[Si](C)(C)C#CC1=CC2=c3cc(C#C[Si](C)(C)C)c4nc(C(F)(F)C(F)(F)C(F)(F)F)nc5c(C#C[Si](C)(C)C)cc(c3c54)C3=CC(C#C[Si](C)(C)C)=C4N=C(C(F)(F)C(F)(F)C(F)(F)F)N=C1C4C32` (stereo not drawn) the value was 0.45.
With `CCCCCCCCC1(CCCCCCCC)c2cc(-c3ccc([N+](=O)[O-])cc3)ccc2-c2ccc(-c3ccc([N+](=O)[O-])cc3)cc21`, the photoluminescence quantum yield runs as follows: (in C1CCCCC1) 0; (in CCO) 0; (in CN(C)C=O) 0.31; (in CS(C)=O) 0.28; (in Cc1ccccc1) 0; (in ClC(Cl)Cl) 0.11.
As to `CCN(CC)c1ccc2cc(-c3nc4cc(C(=O)Nc5ccc(C)cc5[N+](=O)[O-])ccc4o3)c(=O)oc2c1`, the photoluminescence quantum yield (in ClCCl) amounted to 0.43.
As for `N#CC(C#N)=Cc1ccc(-c2ccc(N(c3ccccc3)c3ccccc3)cc2)s1`, the photoluminescence quantum yield (in ClC(Cl)Cl) was found to be 0.18.
For the setting “in O=P(c1ccccc1)(c1ccccc1)c1ccccc1Oc1ccccc1P(=O)(c1ccccc1)c1ccccc1”, `Cc1cc(N2c3ccccc3C(C)(C)c3ccccc32)ccc1-c1cc(-c2ccc(N3c4ccccc4C(C)(C)c4ccccc43)cc2C)ncn1` came in with a photoluminescence quantum yield of 0.71.
For the compound `CCC(C)(C)c1ccc(-c2ccc(-c3ccccc3)cc2)cc1`, the photoluminescence quantum yield (in C1COCCO1) came out at 0.65.
As to `O=C1/C(=C\c2ccc3oc4ccccc4c3c2)S(=O)(=O)c2ccccc21`, the photoluminescence quantum yield came out at 0.037 (in C1CCOC1); 0.047 (in C1COCCO1); 0.041 (in CC#N); 0.055 (in CC(C)=O); 0.048 (in CCOC(C)=O); 0.192 (in CN(C)C=O). The photoluminescence quantum yield came to 0.025 (in CO); 0.209 (in CS(C)=O); 0.116 (in Cc1ccccc1); 0.036 (in ClC(Cl)Cl); 0.092 (in ClCCl).
As to `COc1ccc(/C2=C3N=C(C(c4ccccc4)=C/3c3ccccc3)/C(c3ccc(OC)cc3)=c3\[nH]/c(c(-c4ccccc4)c3-c3ccccc3)=C(/c3ccc(OC)cc3)C3=N/C(=C(/c4ccc(OC)cc4)c4[nH]c2c(-c2ccccc2)c4-c2ccccc2)C(c2ccccc2)=C3c2ccccc2)cc1`, the photoluminescence quantum yield (in ClCCl) is 0.006.
For the compound `CCC1=C(C)C2=Cc3c4ccccc4c4n3[B-](c3ccncc3)(Oc3ccccc3-4)[N+]2=C1C=Cc1ccc(OC)cc1` (stereo not drawn), the photoluminescence quantum yield is, setting by setting: (in CC#N) 0.37; (in CCCCCC) 0.36; (in Cc1ccccc1) 0.35; (in ClCCl) 0.35.
As for `Fc1c(F)c(F)c([B-]2(c3c(F)c(F)c(F)c(F)c3F)Oc3c(ccc4c5c(ccc34)C=[N+](c3ccccc3)[B-](c3c(F)c(F)c(F)c(F)c3F)(c3c(F)c(F)c(F)c(F)c3F)O5)C=[N+]2c2ccccc2)c(F)c1F`, the photoluminescence quantum yield (in Cc1ccccc1) was determined as 0.81 and the photoluminescence quantum yield (in ClCCl) is 0.8.
For `CCCCCCCCCCC(CCCCCCCCCC)Cn1c2cc(-c3ccc(C(C)(C)C)cc3)c3cccc4c5ccc6c7cc(-c8cc(C(C)(C)C)cc(C(C)(C)C)c8)n8c7c(c7cc1c(c5c76)c2c34)=C1C=CC(c2cc(C(C)(C)C)cc(C(C)(C)C)c2)=[N+]1[B-]8(F)F`, the photoluminescence quantum yield (in Cc1ccccc1) was 0.008.
Under “in O”, `CC[n+]1nc2cc3c(cc2c2cc(C)ccc21)N(C)CCC3` gave a photoluminescence quantum yield of 0.54.
